From patent US20260242419A1, “A CYCLIC PEPTIDE FOR TRAPPING INTERLEUKIN-1 BETA” (Merck Sharp & Dohme LLC, priority 2023, published 2026) come the findings set out here.

Starred links: 1 amine or outer side, 2 acyl side, 3 side chain; linkers in the order of their positions; H or OH if unused. Non-standard residues stand in square brackets, D forms with d. Residues, ends and D or L forms follow the SMILES beside them. *: point of attachment. Trp(βS-Me,4-F) = C[C@@H](c1c[nH]c2cccc(F)c12)[C@H](N)C(=O)O; Bip(4'-COOH) = N[C@@H](Cc1ccc(-c2ccc(C(=O)O)cc2)cc1)C(=O)O; X4 = O=C([C@H]1[C@@H](Cc2ccncc2)CCN1[*:1])[*:2]; Ala(pyrimidin-5-yl) = N[C@@H](Cc1cncnc1)C(=O)O; Phe(4-COOH) = N[C@@H](Cc1ccc(C(=O)O)cc1)C(=O)O; Nva(5,5,5-F3) = N[C@@H](CCC(F)(F)F)C(=O)O; Pro(cis-4-F) = O=C(O)[C@@H]1C[C@H](F)CN1; X46 = O=C([C@@H](Cc1cncnc1)N[*:1])[*:2]; dPhe(4-F) = N[C@H](Cc1ccc(F)cc1)C(=O)O; Dap(CONH2) = NC(=O)NC[C@H](N)C(=O)O; d(αMeD) = C[C@@](N)(CC(=O)O)C(=O)O; 4Pal = N[C@@H](Cc1ccncc1)C(=O)O; NMeDab = CN[C@@H](CCN)C(=O)O; Dab = NCC[C@H](N)C(=O)O; Nva = CCC[C@H](N)C(=O)O; Aib = CC(C)(N)C(=O)O; Bn = c1ccc(C*)cc1

In the first assay the target is T1, IL-1β (Homo sapiens, UniProt P01584).
T1 construct: purchased BioLegend 579404
T1 sequence (P01584 117-269): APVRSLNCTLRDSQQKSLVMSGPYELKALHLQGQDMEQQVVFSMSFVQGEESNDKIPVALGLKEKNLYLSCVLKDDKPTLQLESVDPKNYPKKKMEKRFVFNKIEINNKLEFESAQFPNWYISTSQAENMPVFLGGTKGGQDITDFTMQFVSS
The experiment in a line: IL-6 assay in MRC5 cells: inhibition of IL-1β induced IL-6 secretion (AlphaLISA). The class given is cell-based. The conditions noted are these: inhibition of IL-1β induced IL-6 secretion in MRC5 cells; compound pre-incubated 1 hour with recombinant human IL-1β; read-out: MRC5 IC50. In outline: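 Compound was pre-incubated 1 h at ambient temperature with recombinant human IL-1β at 2λ EC80 before adding human lung fibroblast MRC5 cells (3000/well) in EMEM with 0.025% BSA. After overnight culture at 37 °C, 5% CO2, secreted IL-6 in conditioned medium was measured by AlphaLISA; IC50 from 4-parameter logistic fits.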
Consider `C[C@@H](OCc1ccccc1)[C@@H]1NC(=O)[C@@](C)(CC(=O)O)NC(=O)[C@H](Cc2c[nH]c3ccccc23)NC(=O)[C@H](CO)NC(=O)C(C)(C)NC(=O)[C@H]([C@@H](C)c2c[nH]c3cccc(F)c23)NC(=O)[C@@H]2C[C@H](F)CN2C(=O)CNC(=O)[C@H](Cc2ccc(C(=O)O)cc2)NC(=O)[C@H](Cc2ccncc2)NC(=O)[C@H](Cc2ccc(-c3ccc(C(=O)O)cc3)cc2)NC(=O)[C@H]2[C@@H](Cc3ccncc3)CCN2C(=O)CNC(=O)[C@H](CCN)NC(=O)[C@H](CCC(N)=O)NC1=O` [Example 229] (cyclo([Bip(4'-COOH)][4Pal][Phe(4-COOH)]G[Pro(cis-4-F)][Trp(βS-Me,4-F)][Aib]SW[d(αMeD)]T(Bn)Q[Dab]G[X4])), for which the IC50 came to 0.023 nM.
Take `C[C@@H](c1c[nH]c2cccc(F)c12)[C@@H]1NC(=O)[C@@H]2C[C@H](F)CN2C(=O)CNC(=O)[C@H](Cc2ccc(C(=O)O)cc2)NC(=O)[C@H](Cc2ccncc2)NC(=O)[C@H](Cc2ccc(-c3ccc(C(=O)O)cc3)cc2)NC(=O)[C@H]2[C@@H](Cc3ccncc3)CCN2C(=O)CNC(=O)[C@H](CNC(N)=O)NC(=O)[C@H](CCC(N)=O)NC(=O)[C@H](Cc2cncnc2)NC(=O)[C@@](C)(CC(=O)O)NC(=O)[C@H](Cc2c[nH]c3ccccc23)NC(=O)[C@H](CO)NC(=O)C(C)(C)NC1=O` [Example 230] (cyclo([Bip(4'-COOH)][4Pal][Phe(4-COOH)]G[Pro(cis-4-F)][Trp(βS-Me,4-F)][Aib]SW[d(αMeD)][Ala(pyrimidin-5-yl)]Q[Dap(CONH2)]G[X4])): the half-inhibitory concentration (IC50) is 0.022 nM.
As to `CCC[C@@H]1NC(=O)[C@@](C)(CC(=O)O)NC(=O)[C@H](Cc2c[nH]c3ccccc23)NC(=O)[C@H](CO)NC(=O)C(C)(C)NC(=O)[C@H]([C@@H](C)c2c[nH]c3cccc(F)c23)NC(=O)[C@@H]2C[C@H](F)CN2C(=O)CNC(=O)[C@H](Cc2ccc(C(=O)O)cc2)NC(=O)[C@H](Cc2ccncc2)NC(=O)[C@H](Cc2ccc(-c3ccc(C(=O)O)cc3)cc2)NC(=O)[C@H]2[C@@H](Cc3ccncc3)CCN2C(=O)CNC(=O)[C@H](CCN)NC(=O)[C@H](CCC(N)=O)NC1=O` [Example 231] (cyclo([Bip(4'-COOH)][4Pal][Phe(4-COOH)]G[Pro(cis-4-F)][Trp(βS-Me,4-F)][Aib]SW[d(αMeD)][Nva]Q[Dab]G[X4])), the IC50 came to 0.027 nM.
With `C[C@@H](c1c[nH]c2cccc(F)c12)[C@@H]1NC(=O)[C@@H]2C[C@H](F)CN2C(=O)CNC(=O)[C@H](Cc2ccc(C(=O)O)cc2)NC(=O)[C@H](Cc2ccncc2)NC(=O)[C@H](Cc2ccc(-c3ccc(C(=O)O)cc3)cc2)NC(=O)[C@H]2[C@@H](Cc3ccncc3)CCN2C(=O)CNC(=O)[C@H](CCN)NC(=O)[C@H](CCC(N)=O)NC(=O)[C@H](CCC(F)(F)F)NC(=O)[C@@](C)(CC(=O)O)NC(=O)[C@H](Cc2c[nH]c3ccccc23)NC(=O)[C@H](CO)NC(=O)C(C)(C)NC1=O` [Example 232] (cyclo([Bip(4'-COOH)][4Pal][Phe(4-COOH)]G[Pro(cis-4-F)][Trp(βS-Me,4-F)][Aib]SW[d(αMeD)][Nva(5,5,5-F3)]Q[Dab]G[X4])), the IC50 is 0.022 nM.
As for `C[C@@H](c1c[nH]c2cccc(F)c12)[C@@H]1NC(=O)[C@@H]2C[C@H](F)CN2C(=O)CNC(=O)[C@H](Cc2ccc(C(=O)O)cc2)NC(=O)[C@H](Cc2ccncc2)NC(=O)[C@H](Cc2ccc(-c3ccc(C(=O)O)cc3)cc2)NC(=O)[C@H]2[C@@H](Cc3ccncc3)CCN2C(=O)CNC(=O)[C@H](CCN)NC(=O)[C@H](CCC(N)=O)NC(=O)[C@@H](Cc2cncnc2)NC(=O)C(C)(C)NC(=O)[C@H](Cc2c[nH]c3ccccc23)NC(=O)[C@H](CO)NC(=O)C(C)(C)NC1=O` [Example 233] (cyclo([Bip(4'-COOH)][4Pal][Phe(4-COOH)]G[Pro(cis-4-F)][Trp(βS-Me,4-F)][Aib]SW[Aib][X46]Q[Dab]G[X4])), the IC50 was found to be 0.03 nM.
For the compound `C[C@@H](c1c[nH]c2cccc(F)c12)[C@@H]1NC(=O)[C@@H]2C[C@H](F)CN2C(=O)CNC(=O)[C@H](Cc2ccc(C(=O)O)cc2)NC(=O)[C@H](Cc2ccncc2)NC(=O)[C@H](Cc2ccc(-c3ccc(C(=O)O)cc3)cc2)NC(=O)[C@H]2[C@@H](Cc3ccncc3)CCN2C(=O)CNC(=O)[C@H](CCN)NC(=O)[C@H](CCC(N)=O)NC(=O)[C@@H](CC(=O)O)NC(=O)C(C)(C)NC(=O)[C@H](Cc2c[nH]c3ccccc23)NC(=O)[C@H](CO)NC(=O)C(C)(C)NC1=O` [Example 234] (cyclo([Bip(4'-COOH)][4Pal][Phe(4-COOH)]G[Pro(cis-4-F)][Trp(βS-Me,4-F)][Aib]SW[Aib][dD]Q[Dab]G[X4])), the IC50 came out at 0.024 nM.
With `C[C@@H](c1c[nH]c2cccc(F)c12)[C@@H]1NC(=O)[C@@H]2C[C@H](F)CN2C(=O)CNC(=O)[C@H](Cc2ccc(C(=O)O)cc2)NC(=O)[C@H](Cc2ccncc2)NC(=O)[C@H](Cc2ccc(-c3ccc(C(=O)O)cc3)cc2)NC(=O)[C@H]2[C@@H](Cc3ccncc3)CCN2C(=O)CNC(=O)[C@H](CCN)N(C)C(=O)[C@H](CCC(N)=O)NC(=O)[C@H](Cc2cncnc2)NC(=O)[C@@](C)(CC(=O)O)NC(=O)[C@H](Cc2c[nH]c3ccccc23)NC(=O)[C@H](CO)NC(=O)C(C)(C)NC1=O` [Example 235] (cyclo([Bip(4'-COOH)][4Pal][Phe(4-COOH)]G[Pro(cis-4-F)][Trp(βS-Me,4-F)][Aib]SW[d(αMeD)][Ala(pyrimidin-5-yl)]Q[NMeDab]G[X4])), the IC50 amounted to 0.018 nM.
As for `C[C@@H](c1c[nH]c2cccc(F)c12)[C@@H]1NC(=O)[C@@H]2C[C@H](F)CN2C(=O)CNC(=O)[C@H](Cc2ccc(C(=O)O)cc2)NC(=O)[C@H](Cc2ccncc2)NC(=O)[C@H](Cc2ccc(-c3ccc(C(=O)O)cc3)cc2)NC(=O)[C@H]2[C@@H](Cc3ccncc3)CCN2C(=O)CNC(=O)[C@H](CCN)NC(=O)[C@H](CCC(N)=O)NC(=O)[C@@H](Cc2ccc(F)cc2)NC(=O)[C@@](C)(CC(=O)O)NC(=O)[C@H](Cc2c[nH]c3ccccc23)NC(=O)[C@H](CO)NC(=O)C(C)(C)NC1=O` [Example 236] (cyclo([Bip(4'-COOH)][4Pal][Phe(4-COOH)]G[Pro(cis-4-F)][Trp(βS-Me,4-F)][Aib]SW[d(αMeD)][dPhe(4-F)]Q[Dab]G[X4])), the IC50 is 0.021 nM.

Staying with this assay, now noted: inhibition of IL-1β induced IL-6 secretion in MRC5 cells; read-out: MRC5 IC50.
Turning to `CO[C@H](C)[C@@H]1NC(=O)[C@@](C)(CC(=O)O)NC(=O)[C@H](Cc2c[nH]c3ccccc23)NC(=O)[C@H](CO)NC(=O)C(C)(C)NC(=O)[C@H]([C@@H](C)c2c[nH]c3cccc(F)c23)NC(=O)[C@@H]2C[C@H](F)CN2C(=O)CNC(=O)[C@H](Cc2ccc(C(=O)O)cc2)NC(=O)[C@H](Cc2ccncc2)NC(=O)[C@H](Cc2ccc(-c3ccc(C(=O)O)cc3)cc2)NC(=O)[C@H]2[C@@H](Cc3ccncc3)CCN2C(=O)CNC(=O)[C@H](CCN)NC(=O)[C@H](CCC(N)=O)NC1=O` [Example 227] (cyclo([Bip(4'-COOH)][4Pal][Phe(4-COOH)]G[Pro(cis-4-F)][Trp(βS-Me,4-F)][Aib]SW[d(αMeD)]T(Me)Q[Dab]G[X4])), the IC50 was 0.014 nM.
As for `CO[C@H](C)[C@@H]1NC(=O)[C@@](C)(CC(=O)O)NC(=O)[C@H](Cc2c[nH]c3ccccc23)NC(=O)[C@H](CO)NC(=O)C(C)(C)NC(=O)[C@H]([C@@H](C)c2c[nH]c3cccc(F)c23)NC(=O)[C@@H]2C[C@H](F)CN2C(=O)CNC(=O)[C@H](Cc2ccc(C(=O)O)cc2)NC(=O)[C@H](Cc2ccncc2)NC(=O)[C@H](Cc2ccc(-c3ccc(C(=O)O)cc3)cc2)NC(=O)[C@H]2[C@@H](Cc3ccncc3)CCN2C(=O)CNC(=O)[C@H](CNC(N)=O)NC(=O)[C@H](CCC(N)=O)NC1=O` [Example 228] (cyclo([Bip(4'-COOH)][4Pal][Phe(4-COOH)]G[Pro(cis-4-F)][Trp(βS-Me,4-F)][Aib]SW[d(αMeD)]T(Me)Q[Dap(CONH2)]G[X4])), the IC50 worked out at 0.021 nM.
